The values that follow are results of earlier work, collected in US12251395B2, “RNAS for complement inhibition” (Apellis Pharmaceuticals, Inc., priority 2019, dated 2025).

Bridges are numbered along the chain shown (N, C = ends). [ ]: non-standard residue; d: D form. Trp(5-F) = N[C@@H](Cc1c[nH]c2ccc(F)cc12)C(=O)O; Trp(5-Me) = Cc1ccc2[nH]cc(C[C@H](N)C(=O)O)c2c1; Trp(6-F) = N[C@@H](Cc1c[nH]c2cc(F)ccc12)C(=O)O; Bpa = N[C@@H](Cc1ccc(C(=O)c2ccccc2)cc1)C(=O)O; 1Nal = N[C@@H](Cc1cccc2ccccc12)C(=O)O; 2Nal = N[C@@H](Cc1ccc2ccccc2c1)C(=O)O; Igl = N[C@H](C(=O)O)C1Cc2ccccc2C1

Data set [1] relates to complement activation. As to conditions: relative to compstatin amidated at the C-terminus; published data.
In data set [2] the test system is complement activation. Particulars: alternative pathway-mediated erythrocyte lysis assay (WO2004/026328); read-out: IC50 of compstatin.

Regarding “Ac-ICVWQD(5fW)GAHRCT-CONH2 (Ac-ICVWQD[Trp(5-F)]GAHRCT-NH2; disulfide 2-12 (inferred)) [Ac-V4W/W7(5fW)/H9A]”, the “Activity over corn statin” value in data set [1] is reported as 121xmore. In the case of “Ac-ICV(Bpa)QDWGAHRCT-CONH2 (Ac-ICV[Bpa]QDWGAHRCT-NH2; disulfide 2-12 (inferred)) [Ac-V4(Bpa)/H9A]”, the “Activity over corn statin” value in data set [1] is on record as 86xmore. For “Ac-ICVWQDWGAHRCdT-COOH [Ac-V4W/H9A/T13dT -OH]”, the “Activity over corn statin” value in data set [1] is recorded as 55xmore. For “Ac-ICV(2-IgI)QDWGAHRCT-COOH (Ac-ICV[Igl]QDWGAHRCT-OH; disulfide 2-12 (inferred)) [Ac-V42IgI/H9A -OH]”, in data set [1], the “Activity over corn statin” value was 37xmore. In the case of “Ac-ICV(1-Nal)QDWGAHRCT-COOH (Ac-ICV[1Nal]QDWGAHRCT-OH; disulfide 2-12 (inferred)) [Ac V4(1-Nal)/H9A -OH]”, the “Activity over corn statin” value in data set [1] is on record as 30xmore. For the compound “Ac-ICV(2-Nal)QDWGAHRCT-CONH2 (Ac-ICV[2Nal]QDWGAHRCT-NH2; disulfide 2-12 (inferred)) [Ac-V4(2-Nal)/H9A]”, the “Activity over corn statin” value in data set [1] was 99xmore.

For the compound “H-GICV(5fW)QD(5fW)GAHRCTN-COOH (H-GICV[Trp(5-F)]QD[Trp(5-F)]GAHRCTN-OH; disulfide 3-13 (inferred)) [G/V4(5f-W)/W7(5fW)/H9A+FN-OH]”, the “Activity over corn statin” value in data set [1] is 112xmore.

With “Ac-ICV(2-IgI)QDWGAHRCT-CONH2 (Ac-ICV[Igl]QDWGAHRCT-NH2; disulfide 2-12 (inferred)) [Ac-V42IgI/H9A]”, the “Activity over corn statin” value in data set [1] is 39xmore.

In the case of “Ac-ICV(5fW)QDWGAHRCT-CONH2 (Ac-ICV[Trp(5-F)]QDWGAHRCT-NH2; disulfide 2-12 (inferred)) [Ac-V4(5fW)/H9A]”, the “Activity over corn statin” value in data set [1] is 31xmore. For the compound “Ac-ICVWQDWGAHRCT-CONH2 (Ac-ICVWQDWGAHRCT-NH2; disulfide 2-12 (inferred)) [Ac-V4W/H9A]”, in data set [1], the “Activity over corn statin” value is on record as 45xmore. For the compound “H-GICV(6fW)QD(6fW)GAHRCTN-COOH (H-GICV[Trp(6-F)]QD[Trp(6-F)]GAHRCTN-OH; disulfide 3-13 (inferred)) [+G/V4(6fW)/W7(6fW)H9A+FN-OH]”, in data set [1], the “Activity over corn statin” value is on record as 126xmore.

Turning to “Ac-ICV(5-methyl-W)QDWGAHRCT-CONH2 (Ac-ICV[Trp(5-Me)]QDWGAHRCT-NH2; disulfide 2-12 (inferred)) [Ac-V4(5-MeW)/H9A]”, in data set [1], the “Activity over corn statin” value is 67xmore. As for “Ac-ICV(Bpa)QDWGAHRCT-COOH (Ac-ICV[Bpa]QDWGAHRCT-OH; disulfide 2-12 (inferred)) [Ac-V4(Bpa)/H9A -OH]”, the “Activity over corn statin” value in data set [1] is 49xmore. In the case of “Ac-ICV(2-Nal)QDWGAHRCT-COOH (Ac-ICV[2Nal]QDWGAHRCT-OH; disulfide 2-12 (inferred)) [Ac V4(2-Nal)/H9A -OH]”, in data set [1], the “Activity over corn statin” value was 38xmore. Broadly, the IC50 is the concentration that gives 50% inhibition. Regarding `CC[C@H](C)[C@H](N)C(=O)N[C@H]1CSSC[C@@H](C(=O)N[C@H](C(N)=O)[C@@H](C)O)NC(=O)[C@H](CCCN=C(N)N)NC(=O)[C@H](Cc2cnc[nH]2)NC(=O)[C@H](Cc2cnc[nH]2)NC(=O)CNC(=O)[C@H](Cc2c[nH]c3ccccc23)NC(=O)[C@H](CC(=O)O)NC(=O)[C@H](CCC(N)=O)NC(=O)[C@H](C(C)C)NC(=O)[C@H](C(C)C)NC1=O` [Compstatin, H-ICVVQDWGHHRCT-CONH2], the 50% inhibitory concentration (IC50) in data set [2] was 12 µM. For Ac-ICVYQDWGAHRCT-CONH2 [Ac-V4Y/H9A], the “Activity over corn statin” value in data set [1] is on record as 14xmore. Take “Ac-ICWQDWGHHRCT-NH2 (cysteine pairing not given here) [Ac-compstatin]”: in data set [1], the “Activity over corn statin” value is 3xmore.
